Results on 15 compounds are retold here after patent publication US20120142676A1, “Oxathiazine and dithiine oxides as inhibitors of sulfhydryl-dependent biomolecules” (priority 2010, published 2012).

Each structure is given as a SMILES string. Like-named read-outs stand apart in the source and are kept apart here.

Series [1] addresses T1, human topoisomerase IIα (Homo sapiens, UniProt P11388).
T1 construct: 300 ng K562 cells nuclear extract, the amount that gave 80% decatenation; endogenous in cells; host or cells: K562 cells nuclear extract
As to the kind of experiment: Topoisomerase IIα decatenation inhibition assay. The following applies: K562 cells nuclear extract, kDNA decatenation; for inhibition at 3 µM / inhibition at 30 µM: read-out: % Inhibition of topoisomerase II catalytic activity. The class given is biochemical. The procedure: The catalytic inhibition of human topoisomerase IIα by a drug was measured by the ATP-dependent decatenation of kDNA (Topogen, Columbus, Ohio) into minicircles of DNA as we previously described (Hasinoff 1995 QSAR ICRF-187). The 20 μl reaction mixture contained 0.5 mM ATP, 50 mM Tris-HCl (pH 8.0), 120 mM KCl, 10 mM MgCl2, 30 μg/ml bovine serum albumin, 40 ng kDNA, drug or DMSO (0.5 μl) and 300 ng K562 cells nuclear extract, the amount that gave 80% decatenation. The enzymatic reaction was carried out at 37° C. and was terminated by the addition of 6 μl of buffer containing 5 mM Tris pH 8.0, 30% w/v sucrose, 0.5% bromophenol blue, and 125 mM EDTA. The resulting mixture was separated by electrophoresis (2 h at 8 V/cm) on an agarose gel prepared from 1.2% w/v agarose and 0.5 μg/ml ethidium bromide in TAE buffer pH 8.0 (40 mM Tris base, 0.114% (v/v) glacial acetic acid, 2 mM EDTA). The DNA in the gel was imaged by its fluorescence on an Alpha Annotech Fluorchem 8900 imaging system equipped with a 365 nm illuminator and a CCD camera. Densitometry scanning of gel photographs was used to obtain the fluorescence intensity of the band corresponding to the DNA minicircles. The percentage inhibition of K562 topoisomerase II catalytic activity at concentrations of 3 and 30 μM was determined using the following equation: % Inhibition=[(1−(Bdrug−Bbackground)/Bdmso]×100, where Bdrug is the band intensity value for the enzymatic reaction sample treated with drug, Bbackground is the band intensity value for sample without the enzyme, and Bdmso is the band intensity value for the enzymatic reaction sample treated with DMSO solvent only.

The test system of series [2] is human leukemia K562 cells. Put plainly: K562 cell growth inhibition assay (MTS). The class given is cell-based. The following applies: 72 h incubation, read-out: Median growth inhibitory concentration (IC50) of K562 cells. The method, then: K562 cells were obtained from American Type Culture Collection (Rockville, Md.). These cells were maintained as suspension cultures in alpha minimum essential medium (αMEM) (Gibco BRL, Burlington, Canada) containing 2 mM L-glutamine and supplemented with 10% fetal calf serum (Invitrogen, Burlington, ON, Canada), 20 mM NaHCO3, 20 mM HEPES (Sigma), 100 units/ml penicillin G, and 100 μg/ml streptomycin at pH 7.4 in an atmosphere of 5% CO2 and 95% air at 37° C. For the measurement of growth inhibition, cells in exponential growth were harvested and seeded at 6000 cells/well in 96-well plates (100 μl/well). Drugs were dissolved in DMSO and added to the wells such that the final concentration of DMSO was 0.5% (v/v). After 72 h incubation, 7 μl of 3-(4,5-dimethylthiazol-2-yl)-5-(3-carboxymethoxyphenyl)-2-(4-sulfophenyl)-2H-tetrazolium (MTS) Cell Titer 96® AQueous One Solution (Promega, Md., WI) was added to each well and incubated for a further 3 h. The absorbance was measured in a Molecular Devices (Menlo Park, Calif.) plate reader. The spectrophotometric 96-well plate cell growth inhibition assay measures the ability of the cells to enzymatically reduce MTS. Three replicates were measured at each drug concentration, and the IC50 values and their SEs for growth inhibition were obtained by fitting the absorbance-drug concentration data to a four-parameter logistic equation.

T1 sequence (P11388 whole entry): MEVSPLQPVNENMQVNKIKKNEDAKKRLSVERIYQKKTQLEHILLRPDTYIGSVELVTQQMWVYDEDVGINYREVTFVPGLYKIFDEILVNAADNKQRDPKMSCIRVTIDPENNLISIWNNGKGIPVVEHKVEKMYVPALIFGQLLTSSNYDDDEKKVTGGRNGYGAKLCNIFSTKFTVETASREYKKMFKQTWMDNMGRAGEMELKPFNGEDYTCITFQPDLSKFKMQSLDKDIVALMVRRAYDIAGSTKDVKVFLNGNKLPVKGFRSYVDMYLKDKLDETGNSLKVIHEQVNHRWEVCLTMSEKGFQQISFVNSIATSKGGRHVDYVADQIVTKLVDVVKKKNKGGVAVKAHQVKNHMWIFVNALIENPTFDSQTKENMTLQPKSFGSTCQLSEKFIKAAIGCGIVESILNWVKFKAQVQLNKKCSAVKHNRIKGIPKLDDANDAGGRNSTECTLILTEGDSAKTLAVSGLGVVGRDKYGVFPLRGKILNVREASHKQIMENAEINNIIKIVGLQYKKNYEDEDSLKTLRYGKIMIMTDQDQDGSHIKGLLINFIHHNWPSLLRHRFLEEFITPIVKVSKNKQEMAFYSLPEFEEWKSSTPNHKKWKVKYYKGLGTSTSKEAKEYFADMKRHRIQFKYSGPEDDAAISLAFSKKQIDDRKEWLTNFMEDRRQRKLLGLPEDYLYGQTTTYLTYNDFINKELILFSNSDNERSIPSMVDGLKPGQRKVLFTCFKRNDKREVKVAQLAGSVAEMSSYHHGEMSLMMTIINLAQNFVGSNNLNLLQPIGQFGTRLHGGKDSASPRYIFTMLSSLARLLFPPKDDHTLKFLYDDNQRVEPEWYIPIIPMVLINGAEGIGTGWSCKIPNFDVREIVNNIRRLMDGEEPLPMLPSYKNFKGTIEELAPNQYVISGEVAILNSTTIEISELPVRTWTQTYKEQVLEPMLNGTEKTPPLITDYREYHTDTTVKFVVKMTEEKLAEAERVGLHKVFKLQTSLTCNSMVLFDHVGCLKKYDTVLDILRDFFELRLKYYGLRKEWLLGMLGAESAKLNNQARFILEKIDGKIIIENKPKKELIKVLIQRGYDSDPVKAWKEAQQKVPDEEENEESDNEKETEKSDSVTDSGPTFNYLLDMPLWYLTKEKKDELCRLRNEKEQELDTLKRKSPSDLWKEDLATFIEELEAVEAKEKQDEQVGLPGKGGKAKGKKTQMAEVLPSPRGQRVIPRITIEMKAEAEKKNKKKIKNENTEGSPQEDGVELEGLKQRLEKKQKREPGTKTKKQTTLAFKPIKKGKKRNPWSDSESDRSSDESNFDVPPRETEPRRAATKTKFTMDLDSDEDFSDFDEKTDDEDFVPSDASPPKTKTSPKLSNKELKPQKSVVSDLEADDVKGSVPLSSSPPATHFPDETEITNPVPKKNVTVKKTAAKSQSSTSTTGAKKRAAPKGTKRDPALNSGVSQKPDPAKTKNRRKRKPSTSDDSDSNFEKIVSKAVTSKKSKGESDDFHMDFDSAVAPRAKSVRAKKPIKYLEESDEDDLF

For `CCOC(=O)c1ccc(C2=NOCC[S+]2[O-])s1` (stereo not shown) [compound 7], the “% Inhibition of topoisomerase II catalytic activity” value (shortened to “% Inhibition”) in series [1] (3 μM) and in series [1] (30 μM) was 100% in each case. The IC50 in series [2] was determined as 0.9 µM.

In the case of `Cc1ccc2sc(C3=NOCC[S+]3[O-])c(C)c2c1` (stereo not shown) [compound 12], the “% Inhibition” value in series [1] (3 μM) and in series [1] (30 μM) was 100% in each case. Besides, in series [2], the IC50 came to 0.7 µM.

Consider `[O-][S+]1CCON=C1c1nnc(-c2cccc(Cl)c2)o1` (stereo not shown) [compound 8, 3-[5-(3-chlorophenyl)-1,3,4-oxadiazol-2-yl]-5,6-dihydro-1,4λ^4,2-oxathiazin-4-one], for which the melting point (as a rule, the temperature, or range, at which the solid turns liquid) fell in the range of 208 to 210 °C. Also, the inhibition (usually the share of the control response that was lost under treatment) at 3 µM in series [1] (3 μM) turned out to be 80%. Besides, the inhibition at 30 µM in series [1] (30 μM) worked out at 100%. For the same compound, the IC50 in series [2] (Homo sapiens, K562, 72 h) was 4 µM.

As to `CC1=C(COc2ccccc2)S(=O)(=O)CCS1(=O)=O` [compound 2], the “% Inhibition” value in series [1] (3 μM) and in series [1] (30 μM) was 100% in each case. Also, in series [2], the IC50 is 1 µM.

For the compound `CCC1CS(=O)(=O)C(c2ccccc2)=C(c2ccccc2)S1(=O)=O` (stereo not shown) [compound 16], the results for the “% Inhibition” value in series [1] (3 μM) and in series [1] (30 μM) were 80% and 100%, respectively. In series [2], the IC50 was found to be 4 µM.

Regarding `COCC1=C(COC)S(=O)(=O)CCS1(=O)=O` [compound 23], the “% Inhibition” value in series [1] (3 μM) and in series [1] (30 μM) was 100% throughout. The IC50 in series [2] was determined as 2.3 µM.

In the case of `O=S1(=O)CCON=C1c1cc2ccccc2s1` [compound 10], the “% Inhibition” value in series [1] (3 μM) and in series [1] (30 μM) was 100% throughout. Besides, the IC50 in series [2] turned out to be 0.5 µM.

`O=S1(=O)CCON=C1C1=Cc2ccccc2S1(=O)=O` [compound 15]: the “% Inhibition” value in series [1] (3 μM) and in series [1] (30 μM) was 100% in each case. In addition, the IC50 in series [2] is 0.5 µM.

Take `CCCCC1=C(c2ccccc2)S(=O)(=O)CCS1(=O)=O` [compound 18]: the “% Inhibition” value worked out at 70% in series [1] (3 μM) and 100% in series [1] (30 μM). The IC50 in series [2] was determined as 5 µM.

For `CC1=C(CS(=O)(=O)c2ccccc2)S(=O)(=O)CCS1(=O)=O` [compound 22], the “% Inhibition” value in series [1] (3 μM) and in series [1] (30 μM) was 100% in each case. The IC50 in series [2] worked out at 1 µM.

Turning to `CC1C(C)S(=O)(=O)C(c2ccccc2)=CS1(=O)=O` (stereo not shown) [compound 19], the “% Inhibition” value in series [1] (3 μM) and in series [1] (30 μM) was 100% in each case. Also, the IC50 in series [2] amounted to 4 µM.

For `[O-][S+]1CCON=C1c1sc2ccccc2c1Br` (stereo not shown) [compound 13, 3-(3-bromo-1-benzothiophen-2-yl)-5,6-dihydro-1,4λ^4,2-oxathiazin-4-one], in series [1] (3 μM), the inhibition at 3 µM amounted to 100%. Moreover, the inhibition at 30 µM in series [1] (30 μM) was 100%. Besides, the IC50 in series [2] (Homo sapiens, K562, 72 h) amounted to 1 µM.

As for `[O-][S+]1CCON=C1c1cc2ccccc2[s+]1[O-]` (stereo not shown) [compound 14], the “% Inhibition” value in series [1] (3 μM) and in series [1] (30 μM) was 100% each time. Further, the IC50 in series [2] worked out at 1 µM.

For the compound `CC1=C(COc2ccccc2)S(=O)(=O)CCS1(=O)=O` [compound 21, 2-methyl-3-(phenoxymethyl)-5,6-dihydro-1λ^6,4λ^6-dithiine-1,1,4,4-tetrone], the inhibition at 3 µM in series [1] (3 μM) is 100%. In series [1] (30 μM), the inhibition at 30 µM is 100%. The IC50 in series [2] (Homo sapiens, K562, 72 h) was found to be 0.6 µM.

In the case of `CC1C[S+]([O-])C(c2cc3ccccc3s2)=NO1` (stereo not shown) [compound 11], the “% Inhibition” value in series [1] (3 μM) and in series [1] (30 μM) was 100% throughout. Besides, the IC50 in series [2] stood at 2 µM.
